Test results reported in patent US6143739A, “Basic proline-amide derivatives of GE 2270 and GE 2270-like antibiotics” (Biosearch Italia S.p.A., priority 1995, dated 2000).

Columns and labels:
Experiment in all cases: MIC by microbroth dilution
Strept. sanguis L1721 = assay type: cell-based; conditions: 0.01% (w/v) BSA, 10^4 CFU/ml, read after 18-24 h, 37° C., Todd Hewitt broth
Experimental: (§1) The minimal inhibitory concentration (MIC) has been determined by microbroth dilution methodology, in the presence of 0.01% (w/v) of bovine serum albumin (BSA). BSA is added to the diluent to avoid possible adherence of the compounds of the invention to the plastic surface of the microtiter wells, as disclosed also by B. Goldstein et al., Antimicrobial Agents and Chemotherapy, 37 (1993), 741-745.
(§2) Inocula were 10^4 CFU/ml, except for Propionibacterium acnes and Bacteroides fragilis (10^5 CFU/ml).
(§3) MICs were read after 18-24 h, except for Haemophilus influenzae, P. acnes, B. fragilis (48 h).
(§4) All microorganisms were incubated at 37° C.; H. influenzae in a 5% CO2 atmosphere, anaerobes in a N2 --CO2 --H2 (80:10:10) mixture; other organisms in air.
(§5) The growth media are: Oxoid Iso-Sensitest broth for staphylococci and Enterococcus faecalis); Difco Todd Hewitt broth for streptococci; Difco brain heart infusion broth+1% Difco Supplement C for H. influenzae; Difco Wilkins-Chalgren broth for anaerobes.

Strept. agalactiae L310 = assay type: cell-based; conditions: 0.01% (w/v) BSA, 10^4 CFU/ml, read after 18-24 h, 37° C., Todd Hewitt broth
Experimental: as §1, §2, §3, §4, §5

[1] = test system: Streptococcus pyogenes L49; assay type: cell-based; conditions: 0.01% (w/v) BSA, 10^4 CFU/ml, read after 18-24 h, 37° C., Todd Hewitt broth
Experimental: as §1, §2, §3, §4, §5

[2] = test system: Staphylococcus aureus L165; assay type: cell-based; conditions: 0.01% (w/v) BSA, 10^4 CFU/ml, read after 18-24 h, 37° C., Iso-Sensitest broth
Experimental: as §1, §2, §3, §4, §5

Strept. pneumoniae L44 = assay type: cell-based; conditions: 0.01% (w/v) BSA, 10^4 CFU/ml, read after 18-24 h, 37° C., Todd Hewitt broth
Experimental: BSA is added to the diluent to avoid possible adherence of the compounds of the invention to the plastic surface of the microtiter wells, as disclosed also by B. Goldstein et al., Antimicrobial Agents and Chemotherapy, 37 (1993), 741-745. Inocula were 10^4 CFU/ml, except for Propionibacterium acnes and Bacteroides fragilis (10^5 CFU/ml). MICs were read after 18-24 h, except for Haemophilus influenzae, P. acnes, B. fragilis (48 h). All microorganisms were incubated at 37° C.; H. influenzae in a 5% CO2 atmosphere, anaerobes in a N2 --CO2 --H2 (80:10:10) mixture; other organisms in air. The growth media are: Oxoid Iso-Sensitest broth for staphylococci and Enterococcus faecalis); Difco Todd Hewitt broth for streptococci; Difco brain heart infusion broth+1% Difco Supplement C for H. influenzae; Difco Wilkins-Chalgren broth for anaerobes.

[3] = test system: Haemoph. influenzae ATCC 19418 L970; assay type: cell-based, Haemophilus influenzae; conditions: 0.01% (w/v) BSA, 10^4 CFU/ml, read after 48 h, 37° C., 5% CO2, brain heart infusion broth+1% Supplement C
Experimental: as §1, §2, §3, §4, §5

MIC of the compounds, Strept. sanguis L1721 (Strept. sanguis L1721)	MIC of the compounds, Strept. agalactiae L310 (Strept. agalactiae L310)	MIC of the compounds, Streptococcus pyogenes L49 [1]	MIC of the compounds, Staphylococcus aureus L165 [2]	MIC of the compounds, Strept. pneumoniae L44 (Strept. pneumoniae L44)	MIC of the compounds, Haemoph. influenzae ATCC 19418 L970 [3]	SMILES
1 µg/mL	8 µg/mL	4 µg/mL	0.13 µg/mL	0.5 µg/mL	–	CNC(=O)CC1NC(=O)c2csc(n2)-c2ccc(-c3nc(C4=NC(C(=O)N5CCCC5C(=O)N(C)CC(=O)N(C)CCN(C)C)CO4)cs3)nc2-c2csc(n2)-c2csc(n2)C(C(O)c2ccccc2)NC(=O)CNC(=O)c2nc(sc2COC)C(C(C)C)NC(=O)c2nc1sc2C (mixture of isomers) [Compound 13]
0.25 µg/mL	4 µg/mL	2 µg/mL	0.13 µg/mL	0.13 µg/mL	–	CNC(=O)CC1NC(=O)c2csc(n2)-c2ccc(-c3nc(C4=NC(C(=O)N5CCCC5C(=O)NC(C)C(=O)N(C)CCN(C)C)CO4)cs3)nc2-c2csc(n2)-c2csc(n2)C(C(O)c2ccccc2)NC(=O)CNC(=O)c2nc(sc2COC)C(C(C)C)NC(=O)c2nc1sc2C (mixture of isomers) [Compound 14]
1 µg/mL	8 µg/mL	4 µg/mL	0.13 µg/mL	0.5 µg/mL	–	CNC(=O)CC1NC(=O)c2csc(n2)-c2ccc(-c3nc(C4=NC(C(=O)N5CCCC5C(=O)N5CCN(CCCN(C)C)CC5)CO4)cs3)nc2-c2csc(n2)-c2csc(n2)C(C(O)c2ccccc2)NC(=O)CNC(=O)c2nc(sc2COC)C(C(C)C)NC(=O)c2nc1sc2C (mixture of isomers) [Compound 16]
0.25 µg/mL	–	1 µg/mL	0.06 µg/mL	0.25 µg/mL	128 µg/mL	CNC(=O)CC1NC(=O)c2csc(n2)-c2ccc(-c3nc(C4=NC(C(=O)N5CCCC5C(=O)N(C)CCN(C)C)CO4)cs3)nc2-c2csc(n2)-c2csc(n2)C(C(O)c2ccccc2)NC(=O)CNC(=O)c2nc(sc2COC)C(C(C)C)NC(=O)c2nc1sc2C (mixture of isomers) [Compound 5]
2 µg/mL	8 µg/mL	8 µg/mL	0.06 µg/mL	0.5 µg/mL	–	CCN(CC)CCN(CC)C(=O)C1CCCN1C(=O)C1COC(c2csc(-c3ccc4c(n3)-c3csc(n3)-c3csc(n3)C(C(O)c3ccccc3)NC(=O)CNC(=O)c3nc(sc3COC)C(C(C)C)NC(=O)c3nc(sc3C)C(CC(=O)NC)NC(=O)c3csc-4n3)n2)=N1 (mixture of isomers) [Compound 9]
2 µg/mL	16 µg/mL	0.5 µg/mL	0.06 µg/mL	0.25 µg/mL	–	CNC(=O)CC1NC(=O)c2csc(n2)-c2ccc(-c3nc(C4=NC(C(=O)N5CCCC5C(=O)N5CCN(CCN6CCOCC6)CC5)CO4)cs3)nc2-c2csc(n2)-c2csc(n2)C(C(O)c2ccccc2)NC(=O)CNC(=O)c2nc(sc2COC)C(C(C)C)NC(=O)c2nc1sc2C (mixture of isomers) [Compound 19]
0.5 µg/mL	8 µg/mL	4 µg/mL	0.06 µg/mL	0.5 µg/mL	–	CNC(=O)CC1NC(=O)c2csc(n2)-c2ccc(-c3nc(C4=NC(C(=O)N5CCCC5C(=O)N(C)CCN5CCN(C)CC5)CO4)cs3)nc2-c2csc(n2)-c2csc(n2)C(C(O)c2ccccc2)NC(=O)CNC(=O)c2nc(sc2COC)C(C(C)C)NC(=O)c2nc1sc2C (mixture of isomers) [Compound 17]
1 µg/mL	8 µg/mL	4 µg/mL	0.13 µg/mL	0.5 µg/mL	–	CNC(=O)CC1NC(=O)c2csc(n2)-c2ccc(-c3nc(C4=NC(C(=O)N5CCCC5C(=O)N5CCCC5CN(C)CCN(C)C)CO4)cs3)nc2-c2csc(n2)-c2csc(n2)C(C(O)c2ccccc2)NC(=O)CNC(=O)c2nc(sc2COC)C(C(C)C)NC(=O)c2nc1sc2C (mixture of isomers) [Compound 20]
2 µg/mL	8 µg/mL	8 µg/mL	0.06 µg/mL	0.5 µg/mL	–	CNC(=O)CC1NC(=O)c2csc(n2)-c2ccc(-c3nc(C4=NC(C(=O)N5CCCC5C(=O)N(C)CCN5CCN(CCO)CC5)CO4)cs3)nc2-c2csc(n2)-c2csc(n2)C(C(O)c2ccccc2)NC(=O)CNC(=O)c2nc(sc2COC)C(C(C)C)NC(=O)c2nc1sc2C (mixture of isomers) [Compound 18]
2 µg/mL	16 µg/mL	8 µg/mL	0.06 µg/mL	1 µg/mL	–	CNC(=O)CC1NC(=O)c2csc(n2)-c2ccc(-c3nc(C4=NC(C(=O)N5CCCC5C(=O)N(C)CCN(C)CCN(C)C)CO4)cs3)nc2-c2csc(n2)-c2csc(n2)C(C(O)c2ccccc2)NC(=O)CNC(=O)c2nc(sc2COC)C(C(C)C)NC(=O)c2nc1sc2C (mixture of isomers) [Compound 15]
0.5 µg/mL	4 µg/mL	4 µg/mL	0.06 µg/mL	0.25 µg/mL	–	CNC(=O)CC1NC(=O)c2csc(n2)-c2ccc(-c3nc(C4=NC(C(=O)N5CCCC5C(=O)NCCCN(C)C)CO4)cs3)nc2-c2csc(n2)-c2csc(n2)C(C(O)c2ccccc2)NC(=O)CNC(=O)c2nc(sc2COC)C(C(C)C)NC(=O)c2nc1sc2C (mixture of isomers) [Compound 4]
0.5 µg/mL	4 µg/mL	1 µg/mL	0.06 µg/mL	0.13 µg/mL	–	CNC(=O)CC1NC(=O)c2csc(n2)-c2ccc(-c3nc(C4=NC(C(=O)N5CCCC5C(=O)NCCN(C)C)CO4)cs3)nc2-c2csc(n2)-c2csc(n2)C(C(O)c2ccccc2)NC(=O)CNC(=O)c2nc(sc2COC)C(C(C)C)NC(=O)c2nc1sc2C (mixture of isomers) [Compound 7]
0.5 µg/mL	8 µg/mL	4 µg/mL	0.06 µg/mL	0.25 µg/mL	–	CCN(CCN(C)C)C(=O)C1CCCN1C(=O)C1COC(c2csc(-c3ccc4c(n3)-c3csc(n3)-c3csc(n3)C(C(O)c3ccccc3)NC(=O)CNC(=O)c3nc(sc3COC)C(C(C)C)NC(=O)c3nc(sc3C)C(CC(=O)NC)NC(=O)c3csc-4n3)n2)=N1 (mixture of isomers) [Compound 8]
0.5 µg/mL	4 µg/mL	4 µg/mL	0.06 µg/mL	0.25 µg/mL	–	CNC(=O)CC1NC(=O)c2csc(n2)-c2ccc(-c3nc(C4=NC(C(=O)N5CCCC5C(=O)NCCN(C(C)C)C(C)C)CO4)cs3)nc2-c2csc(n2)-c2csc(n2)C(C(O)c2ccccc2)NC(=O)CNC(=O)c2nc(sc2COC)C(C(C)C)NC(=O)c2nc1sc2C (mixture of isomers) [Compound 11]
